According to ChEMBL document CHEMBL4665887, “Identification, Structure-Activity Relationships of Marine-Derived Indolocarbazoles, and a Dual PKCθ/δ Inhibitor with Potent Antipancreatic Cancer Efficacy” (J Med Chem, 2020):

Columns and labels:
[1] = biological target: Protein kinase C theta type (Homo sapiens, UniProt Q04759); assay: Inhibition of PKCtheta (unknown origin) by HTRF assay
NCI-H1299 = assay: Cytotoxicity in human NCI-H1299 cells assessed as reduction in cell viability incubated for 24 hrs by CCK8 assay; assay type: functional, cell-based; conditions: NCI-H1299, 24 h
RKO = assay: Cytotoxicity in human RKO cells assessed as reduction in cell viability incubated for 24 hrs by CCK8 assay; assay type: functional, cell-based
BXPC-3 = assay: Cytotoxicity in human BXPC-3 cells assessed as reduction in cell viability incubated for 24 hrs by CCK8 assay; assay type: functional, cell-based; conditions: BXPC-3, 24 h
MGC-803 = assay: Cytotoxicity in human MGC-803 cells assessed as reduction in cell viability incubated for 24 hrs by CCK8 assay; assay type: functional, cell-based; conditions: MGC-803, 24 h
PC-9 = assay: Cytotoxicity in human PC-9 cells assessed as reduction in cell viability incubated for 24 hrs by CCK8 assay; assay type: functional, cell-based; conditions: PC-9, 24 h
NCI-H1975 = assay: Cytotoxicity in human NCI-H1975 cells assessed as reduction in cell viability incubated for 24 hrs by CCK8 assay; assay type: functional, cell-based; conditions: NCI-H1975, 24 h
A549 = assay: Cytotoxicity in human A549 cells assessed as reduction in cell viability incubated for 24 hrs by CCK8 assay; assay type: functional, cell-based; conditions: A549, 24 h
ASPC1 = assay: Cytotoxicity in human ASPC1 cells assessed as reduction in cell viability incubated for 24 hrs by CCK8 assay; assay type: functional, cell-based; conditions: ASPC1, 24 h

Sequence of Protein kinase C theta type (Q04759 whole entry): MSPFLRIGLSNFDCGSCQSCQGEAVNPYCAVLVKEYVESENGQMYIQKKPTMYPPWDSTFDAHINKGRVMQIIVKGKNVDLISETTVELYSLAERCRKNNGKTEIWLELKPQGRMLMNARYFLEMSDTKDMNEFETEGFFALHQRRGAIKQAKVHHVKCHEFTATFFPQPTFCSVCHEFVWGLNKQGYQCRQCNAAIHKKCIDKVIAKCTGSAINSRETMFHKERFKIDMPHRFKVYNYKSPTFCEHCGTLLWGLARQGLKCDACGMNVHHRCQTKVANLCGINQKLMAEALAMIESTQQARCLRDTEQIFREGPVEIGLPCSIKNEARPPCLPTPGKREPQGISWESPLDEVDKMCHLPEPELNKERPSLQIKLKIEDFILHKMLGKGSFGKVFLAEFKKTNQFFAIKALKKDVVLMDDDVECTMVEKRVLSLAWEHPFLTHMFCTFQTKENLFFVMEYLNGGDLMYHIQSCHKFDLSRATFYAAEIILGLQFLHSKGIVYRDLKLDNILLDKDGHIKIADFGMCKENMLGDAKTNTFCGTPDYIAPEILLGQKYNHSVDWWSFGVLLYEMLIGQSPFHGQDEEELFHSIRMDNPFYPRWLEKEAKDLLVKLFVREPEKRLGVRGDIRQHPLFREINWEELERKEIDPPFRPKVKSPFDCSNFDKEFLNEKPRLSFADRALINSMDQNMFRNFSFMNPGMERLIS

IC50 [1] [nM]	Compound	further results
> 2500	O=C1NC(O)c2c1c1c3ccccc3[nH]c1c1[nH]c3ccccc3c21 (configuration not stated)	
> 2500	C[C@@H]1O[C@@H](n2c3ccccc3c3c4c(c5c6ccccc6[nH]c5c32)CNC4=O)[C@H](O)[C@H](O)[C@H]1O	
> 2500	CC(=O)N[C@@H]1C[C@H](n2c3ccccc3c3c4c(c5c6ccccc6[nH]c5c32)CNC4=O)O[C@@H](C)[C@@H]1O	
270	CC(=O)N[C@H]1C[C@H]2O[C@@](C)([C@@H]1O)n1c3ccccc3c3c4c(c5c6ccccc6n2c5c31)C(=O)NC4	
> 2500	CC(=O)N[C@@H]1C[C@H](n2c3ccccc3c3c4c(c5c6cc(O)ccc6[nH]c5c32)CNC4=O)O[C@@H](C)[C@@H]1O	
> 2500	C[C@H]1O[C@@H]2C[C@](O)([C@H]1O)n1c3ccccc3c3c4c(c5c6cc(O)ccc6n2c5c31)C(=O)NC4	
> 2500	COC1NC(=O)c2c1c1c3ccccc3[nH]c1c1[nH]c3ccc(O)cc3c21 (configuration not stated)	
> 2500	O=C1NCc2c1c1c3ccccc3[nH]c1c1[nH]c3ccc(O)cc3c21	
> 2500	C[C@@H]1O[C@@H](n2c3ccc(O)cc3c3c4c(c5c6ccccc6[nH]c5c32)CNC4=O)C[C@@H](N)[C@H]1O	
> 2500	C[C@@H]1O[C@@H]2C[C@](O)([C@H]1O)n1c3ccccc3c3c4c(c5c6cc(O)ccc6n2c5c31)C(=O)NC4	
2110	O=C1NCc2c1c1c3cc(O)ccc3[nH]c1c1[nH]c3ccccc3c21	
> 2500	C[C@@H]1O[C@@H](n2c3ccccc3c3c4c(c5c6ccccc6[nH]c5c32)C(=O)NC4=O)[C@H](O)[C@H](O)[C@H]1O	
> 2500	C[C@@H]1O[C@@H](n2c3ccccc3c3c4c(c5c6ccccc6[nH]c5c32)CNC4=O)C[C@@H](NC=O)[C@H]1O	
> 2500	CNC(=O)C[C@H]1O[C@@](C)(C(=O)OC)n2c3ccccc3c3c4c(c5c6ccccc6n1c5c32)C(=O)NC4	
250	CO[C@@H]1[C@H](N(C)C=O)C[C@H]2O[C@]1(C)n1c3ccccc3c3c4c(c5c6ccccc6n2c5c31)C(=O)NC4	
> 2500	C[C@@H]1O[C@@H](n2c3ccc(O)cc3c3c4c(c5c6ccccc6[nH]c5c32)CNC4=O)[C@H](O)[C@H](O)[C@H]1O	
> 2500	CO[C@H]1NC(=O)c2c1c1c3ccccc3[nH]c1c1c2c2ccccc2n1[C@@H]1O[C@@H](C)[C@H](O)[C@@H](O)[C@H]1O	
> 2500	CNn1c2ccccc2c2c3c(c4c5ccccc5[nH]c4c21)C(=O)NC3	
> 2500	CO[C@@H]1[C@H](NC=O)C[C@H]2O[C@]1(C)n1c3ccccc3c3c4c(c5c6ccccc6n2c5c31)C(=O)NC4	
> 2500	CO[C@@H]1C(=O)C[C@H]2O[C@]1(C)n1c3ccccc3c3c4c(c5c6ccccc6n2c5c31)C(=O)NC4	
4760	C[C@@H]1O[C@@H](n2c3ccccc3c3c4c(c5c6ccccc6[nH]c5c32)C(=O)NC4=O)C[C@@H](NC=O)[C@H]1O	
36	CO[C@@H]1[C@H](N)C[C@H]2O[C@]1(C)n1c3ccccc3c3c4c(c5c6ccccc6n2c5c31)C(=O)NC4=O	

IC50 [1] [nM]	Compound	further results
170	CO[C@H]1[C@@H](N2CC[C@@H](O)C2=O)C[C@@H]2O[C@@]1(C)n1c3ccccc3c3c4c(c5c6ccccc6n2c5c31)C(=O)NC4	
38	CO[C@@H]1[C@H](NC(C)=O)C[C@H]2O[C@]1(C)n1c3ccccc3c3c4c(c5c6ccccc6n2c5c31)C(=O)NC4	
> 2500	CC(=O)N[C@@H]1C[C@H](n2c3ccccc3c3c4c(c5c6ccccc6[nH]c5c32)C(=O)NC4=O)O[C@@H](C)[C@@H]1O	
> 2500	COc1cc(/C=C(/C(N)=O)n2c3ccccc3c3c4c(c5c6ccccc6[nH]c5c32)CNC4=O)ccc1O	
> 2500	CO[C@@H]1/C(=N/O)C[C@H]2O[C@]1(C)n1c3ccccc3c3c4c(c5c6ccccc6n2c5c31)C(=O)NC4	
1010	CO[C@@H]1[C@@H](O)[C@@H](O)[C@H]2O[C@]1(C)n1c3ccccc3c3c4c(c5c6ccccc6n2c5c31)C(=O)NC4	
1300	CO[C@@H]1[C@H](O)C[C@H]2O[C@]1(C)n1c3ccccc3c3c4c(c5c6ccccc6n2c5c31)C(=O)NC4	
600	C[C@]12O[C@H](C[C@@H](O)[C@H]1O)n1c3ccccc3c3c4c(c5c6ccccc6n2c5c31)CNC4=O	
480	CO[C@@H]1[C@@H](O)C[C@H]2O[C@]1(C)n1c3ccccc3c3c4c(c5c6ccccc6n2c5c31)C(=O)NC4	
170	CO[C@@H]1[C@H](N(C)C(C)=O)C[C@H]2O[C@]1(C)n1c3ccccc3c3c4c(c5c6ccccc6n2c5c31)C(=O)NC4	
> 2500	CO[C@@H]1C(C)(O)O[C@@H]2C[C@@]1(OC)n1c3ccccc3c3c4c(c5c6ccccc6n2c5c31)C(=O)NC4 (some centres not stated)	
50	CO[C@@H]1[C@H](N(C)C(C)=O)C[C@H]2O[C@]1(C)n1c3ccccc3c3c4c(c5c6ccccc6n2c5c31)C(=O)NC4=O	
1050	CC(=O)N[C@H]1C[C@H](n2c3ccccc3c3c4c(c5c6ccccc6[nH]c5c32)CNC4=O)O[C@@H](C)[C@@H]1O	
> 2500	COC(=O)c1cccc2c1NC1(C[C@H]3O[C@]1(C)n1c4ccccc4c4c5c(c6c7ccccc7n3c6c41)C(=O)NC5)C(=O)O2 (some centres not stated)	
> 2500	C[C@@H]1O[C@@H](n2c3ccccc3c3c4c(c5c6ccccc6[nH]c5c32)[C@H](O)NC4=O)[C@H](O)[C@H](O)[C@H]1O	
> 2500	CN1Cc2c(c3c4ccccc4[nH]c3c3[nH]c4ccccc4c23)C1=O	
> 2500	C[C@H]1NC(=O)c2c1c1c3ccccc3[nH]c1c1[nH]c3ccccc3c21	
560	CO[C@H]1C(=O)C[C@H]2O[C@]1(C)n1c3ccccc3c3c4c(c5c6ccccc6n2c5c31)C(=O)NC4	
400	CO[C@@H]1[C@H](N(C)C(N)=O)C[C@H]2O[C@]1(C)n1c3ccccc3c3c4c(c5c6ccccc6n2c5c31)C(=O)NC4	
5750	C[C@@H]1O[C@@H](n2c3ccccc3c3c4c(c5c6ccccc6[nH]c5c32)CNC4=O)C[C@@H](N)[C@H]1OC(O)C1CO1 (some centres not stated)	
> 2500	COC1NC(=O)c2c1c1c3ccccc3[nH]c1c1[nH]c3ccccc3c21 (configuration not stated)	
	CN1CCN(c2nc(C3=C(c4c[nH]c5ccccc45)C(=O)NC3=O)c3ccccc3n2)CC1 [SOTRASTAURIN]	IC50 (NCI-H1299): > 3200 nM; IC50 (RKO): > 3200 nM; IC50 (BXPC-3): > 3200 nM; IC50 (MGC-803): > 3200 nM; IC50 (PC-9): > 3200 nM; IC50 (NCI-H1975): > 3200 nM; IC50 (A549): > 3200 nM; IC50 (ASPC1): > 3200 nM

Compound	IC50 [1] [nM]	further results
C[C@@H]1O[C@@H](n2c3ccccc3c3c4c(c5c6ccccc6[nH]c5c32)CNC4=O)C[C@@H](N)[C@H]1O	260	
CC(=O)N[C@@H]1C[C@H](n2c3ccc(O)cc3c3c4c(c5c6ccccc6[nH]c5c32)CNC4=O)O[C@@H](C)[C@@H]1O	280	
COC(=O)[C@@]1(OC)C[C@H]2O[C@]1(C)n1c3ccccc3c3c4c(c5c6ccccc6n2c5c31)C(=O)NC4	520	
C[C@]12O[C@H](C[C@]1(O)C(=O)O)n1c3ccccc3c3c4c(c5c6ccccc6n2c5c31)C(=O)NC4=O	1860	
CO[C@H]1NC(=O)c2c1c1c3ccccc3n3c1c1c2c2ccccc2n1[C@@H]1O[C@@]3(C)[C@H](OC)[C@@H](O)[C@H]1O	890	
C[C@]12O[C@H](C[C@]1(O)C(=O)O)n1c3ccccc3c3c4c(c5c6ccccc6n2c5c31)CNC4=O	5590	
C[C@@H]1O[C@@H](n2c3ccccc3c3c4c(c5c6ccccc6[nH]c5c32)C(=O)NC4=O)C[C@@H](N)[C@H]1O	1180	
CO[C@@H]1[C@@H](O)[C@@H](O)[C@H]2O[C@]1(C)n1c3ccccc3c3c4c(c5c6ccccc6n2c5c31)C(=O)NC4=O	1420	
COC(=O)[C@H]1C[C@H]2O[C@]1(C)n1c3ccccc3c3c4c(c5c6ccccc6n2c5c31)C(=O)NC4	1680	
CO[C@@H]1[C@H](NC(=O)C(=O)c2c[nH]c3ccccc23)C[C@H]2O[C@]1(C)n1c3ccccc3c3c4c(c5c6ccccc6n2c5c31)C(=O)NC4	1790	
C[C@@H]1O[C@@H]2C[C@](O)([C@H]1O)n1c3ccccc3c3c4c(c5c6ccccc6n2c5c31)C(=O)NC4	1910	
CO[C@@H]1[C@@H](O)[C@@H](O)[C@H]2O[C@]1(C)n1c3ccccc3c3c4c(c5c6ccccc6n2c5c31)C(=O)N[C@H]4O	2250	
CN[C@]1(C(=O)OC)C[C@H]2O[C@]1(C)n1c3ccccc3c3c4c(c5c6ccccc6n2c5c31)C(=O)NC4	> 2500	
CO[C@@H]1[C@@H](O)[C@@H](O)[C@H]2O[C@]1(C)n1c3ccccc3c3c4c(c5c6ccccc6n2c5c31)C(=O)N[C@@H]4O	> 2500	
COC1=C(C)O[C@@H]2C[C@@]1(OC)n1c3ccccc3c3c4c(c5c6ccccc6n2c5c31)C(=O)NC4	370	
C[C@H]1O[C@@H]2C[C@](O)([C@@H]1O)n1c3ccccc3c3c4c(c5c6ccccc6n2c5c31)C(=O)NC4	> 2500	
CO[C@@H]1[C@H](O)[C@H](O)[C@H](C)O[C@H]1n1c2ccccc2c2c3c(c4c5ccccc5[nH]c4c21)CNC3=O	9430	
CO[C@@H]1[C@@H](O)[C@@H](O)[C@H]2O[C@]1(C)n1c3ccccc3c3c4c(c5c6ccccc6n2c5c31)C(=O)N[C@H]4OC	> 2500	
CN[C@@H]1C[C@H]2O[C@@](C)([C@@H]1OC)n1c3ccccc3c3c4c(c5c6ccccc6n2c5c31)C(=O)NC4=O (stereo in doubt; 14)	17	
O=C1NC(=O)c2c1c1c3ccccc3[nH]c1c1[nH]c3ccccc3c21 [STAUROSPORINE AGLYCON]	> 2500	
O=C1NCc2c1c1c3ccccc3[nH]c1c1[nH]c3ccccc3c21 [STAUROSPORINONE]	> 2500	
